Test system: RSV Long strain
Assay: Viral cytopathic effect (CPE) assay, RSV Long strain
Type: cell-based, Respiratory Syncytial Virus
Settings: human respiratory syncytial virus, 144 h, cell viability after 6 days (Cell Counting kit-8)
Method: EC50: the concentration of a compound where 50% of its maximal protection effect against viral induced CPE is observed
LongStrain: an A subtype RSV strain obtained from ATCC with catalog number VR-26
To measure anti-RSV activity of compounds, 96-well plates are seeded with 6×10^3 cells per well in Dulbecco's modified Eagle's medium (DMEM) containing 10% fetal bovine serum (FBS). Cells are infected the next day with sufficient RSV Long strain (ATCC) to produce an approximately 80-90% cytopathic effect after 6 days, in the presence of serial half-log diluted compound in a total volume of […] per well. The viability of cells is assessed after 6 days using Cell Counting kit-8 (Dojindo Molecular Technologies). The absorbance at 450 nm and referenced at 630 nm is measured to determine 50% effective concentration (EC50)

| Structure (SMILES) | EC50 [nM] |
| --- | --- |
| CS(=O)(=O)CCn1c(CN2C(=O)C3(CC3)c3ccncc32)cc2ccccc21 [Example 1-1, 1′-({1-[2-(Methylsulfonyl)ethyl]-1H-indol-2-yl}methyl)spiro[cyclopropane-1,3′-pyrrolo[2,3-c]pyridin]-2′(1′H)-one] | 220 |
| COc1ccc2c(c1)cc(CN1C(=O)C3(CC3)c3ccncc31)n2CCS(C)(=O)=O [Example 1-2, 1′-({5-Methoxy-1-[2-(methylsulfonyl)ethyl]-1H-indol-2-yl}methyl)spiro[cyclopropane-1,3′-pyrrolo[2,3-c]pyridin]-2′(1′H)-one] | 74 |
| CS(=O)(=O)CCn1c(CN2C(=O)C3(CC3)c3ccncc32)cc2cc(C#N)ccc21 [Example 1-3, 1-[2-(Methylsulfonyl)ethyl]-2-[(2′-oxospiro[cyclopropane-1,3′-pyrrolo[2,3-c]pyridin]-1′(2′H)-yl)methyl]-1H-indole-5-carbonitrile] | 938 |
| CS(=O)(=O)CCn1c(CN2C(=O)C3(CC3)c3ccncc32)cc2cc(F)ccc21 [Example 1-4, 1′-({5-Fluoro-1-[2-(methylsulfonyl)ethyl]-1H-indol-2-yl}methyl)spiro[cyclopropane-1,3′-pyrrolo[2,3-c]pyridin]-2′(1′H)-one] | 189 |
| CS(=O)(=O)CCn1c(CN2C(=O)C3(CC3)c3ccncc32)cc2cc(Br)ccc21 [Example 1-5, 1′-({5-Bromo-1-[2-(methylsulfonyl)ethyl]-1H-indol-2-yl}methyl)spiro[cyclopropane-1,3′-pyrrolo[2,3-c]pyridin]-2′(1′H)-one] | 14 |
| CS(=O)(=O)CCn1c(CN2C(=O)C3(CC3)c3ccncc32)cc2c(Cl)cccc21 [Example 1-6, 1′-({4-Chloro-1-[2-(methylsulfonyl)ethyl]-1H-indol-2-yl}methyl)spiro[cyclopropane-1,3′-pyrrolo[2,3-c]pyridin]-2′(1′H)-one] | 1670 |
| CS(=O)(=O)CCn1c(CN2C(=O)C3(CC3)c3ccncc32)cc2cccc(Cl)c21 [Example 1-7, 1′-({7-Chloro-1-[2-(methylsulfonyl)ethyl]-1H-indol-2-yl}methyl)spiro[cyclopropane-1,3′-pyrrolo[2,3-c]pyridin]-2′(1′H)-one] | 164 |
| CCc1ccc2c(c1)cc(CN1C(=O)C3(CC3)c3ccncc31)n2CCS(C)(=O)=O [Example 1-8, 1′-({5-Ethyl-1-[2-(methylsulfonyl)ethyl]-1H-indol-2-yl}methyl)spiro[cyclopropane-1,3′-pyrrolo[2,3-c]pyridin]-2′(1′H)-one] | 220 |
| CS(=O)(=O)CCn1c(CN2C(=O)C3(CC3)c3ccncc32)cc2cc(F)cc(F)c21 [Example 1-9, 1′-({5,7-Difluoro-1-[2-(methylsulfonyl)ethyl]-1H-indol-2-yl}methyl)spiro[cyclopropane-1,3′-pyrrolo[2,3-c]pyridin]-2′(1′H)-one] | 24 |
| CS(=O)(=O)CCn1c(CN2C(=O)C3(CC3)c3ccncc32)cc2cc(C(F)(F)F)ccc21 [Example 1-10, 1′-({1-[2-(Methylsulfonyl)ethyl]-5-(trifluoromethyl)-1H-indol-2-yl}methyl)spiro[cyclopropane-1,3′-pyrrolo[2,3-c]pyridin]-2′(1′H)-one] | 557 |
| CS(=O)(=O)CCn1c(CN2C(=O)C3(CC3)c3ccncc32)cc2cc(F)c(F)cc21 [Example 1-11, 1′-({5,6-Difluoro-1-[2-(methylsulfonyl)ethyl]-1H-indol-2-yl}methyl)spiro[cyclopropane-1,3′-pyrrolo[2,3-c]pyridin]-2′(1′H)-one] | 935 |
| CS(=O)(=O)CCn1c(CN2C(=O)C3(CC3)c3ccncc32)cc2cc(Cl)cc(F)c21 [Example 1-12, 1′-({5-Chloro-7-fluoro-1-[2-(methylsulfonyl)ethyl]-1H-indol-2-yl}methyl)spiro[cyclopropane-1,3′-pyrrolo[2,3-c]pyridin]-2′(1′H)-one] | 3.4 |
| Cc1ccc2c(c1)cc(CN1C(=O)C3(CC3)c3ccncc31)n2CCS(C)(=O)=O [Example 1-13, 1′-({5-Methyl-1-[2-(methylsulfonyl)ethyl]-1H-indol-2-yl}methyl)spiro[cyclopropane-1,3′-pyrrolo[2,3-c]pyridin]-2′(1′H)-one] | 9 |
| CS(=O)(=O)CCn1c(CN2C(=O)C3(CC3)c3ccncc32)cc2cnccc21 [Example 1-14, 1′-({1-[2-(Methylsulfonyl)ethyl]-1H-pyrrolo[3,2-c]pyridin-2-yl}methyl)spiro[cyclopropane-1,3′-pyrrolo[2,3-c]pyridin]-2′(1′H)-one] | 77.8 |
| CCS(=O)(=O)CCn1c(CN2C(=O)C3(CC3)c3ccncc32)cc2cc(Cl)ccc21 [Example 2-1, 1′-({5-Chloro-1-[2-(ethylsulfonyl)ethyl]-1H-indol-2-yl}methyl)spiro[cyclopropane-1,3′-pyrrolo[2,3-c]pyridin]-2′(1′H)-one] | 7.67 |
| CCS(=O)(=O)CCn1c(CN2C(=O)C3(CC3)c3ccncc32)cc2cc(Cl)cnc21 [Example 2-2, 1′-({5-Chloro-1-[2-(ethylsulfonyl)ethyl]-1H-pyrrolo[2,3-b]pyridin-2-yl}methyl)spiro[cyclopropane-1,3′-pyrrolo[2,3-c]pyridin]-2′(1′H)-one] | 19 |
| CCS(=O)(=O)CCn1c(CN2C(=O)C3(CC3)c3cccnc32)cc2cc(Cl)ccc21 [Example 2-3, 1′-({5-Chloro-1-[2-(ethylsulfonyl)ethyl]-1H-indol-2-yl}methyl)spiro[cyclopropane-1,3′-pyrrolo[2,3-b]pyridin]-2′(1′H)-one] | 247 |
| CS(=O)(=O)CCn1c(CN2C(=O)C3(CCC3)c3ccncc32)cc2cc(Cl)cnc21 [Example 2-4, 1′-({5-Chloro-1-[2-(methylsulfonyl)ethyl]-1H-pyrrolo[2,3-b]pyridin-2-yl}methyl)spiro[cyclobutane-1,3′-pyrrolo[2,3-c]pyridin]-2′(1′H)-one] | 28.8 |
| CS(=O)(=O)CCn1c(CN2C(=O)C3(CC3)c3cccnc32)cc2cc(Cl)ccc21 [Example 2-5, 1′-({5-Chloro-1-[2-(methylsulfonyl)ethyl]-1H-indol-2-yl}methyl)spiro[cyclopropane-1,3′-pyrrolo[2,3-b]pyridin]-2′(1′H)-one] | 169 |
| CS(=O)(=O)CCn1c(CN2C(=O)C3(CC3)c3cc(F)ccc32)cc2cc(Cl)cnc21 [Example 2-7, 1′-({5-Chloro-1-[2-(methylsulfonyl)ethyl]-1H-pyrrolo[2,3-b]pyridin-2-yl}methyl)-5′-fluorospiro[cyclopropane-1,3′-indol]-2′(1′H)-one] | 750 |
| CS(=O)(=O)CCn1c(CN2C(=O)C3(CCCC3)c3ccncc32)cc2cc(Cl)cnc21 [Example 2-8, 1′-({5-Chloro-1-[2-(methylsulfonyl)ethyl]-1H-pyrrolo[2,3-b]pyridin-2-yl}methyl)spiro[cyclopentane-1,3′-pyrrolo[2,3-c]pyridin]-2′(1′H)-one] | 919 |
| CS(=O)(=O)CCn1c(CN2C(=O)C3(CC3)c3ccncc32)cc2nc(Cl)ccc21 [Example 2-9, 1′-({5-Chloro-1-[2-(methylsulfonyl)ethyl]-1H-pyrrolo[3,2-b]pyridin-2-yl}methyl)spiro[cyclopropane-1,3′-pyrrolo[2,3-c]pyridin]-2′(1′H)-one] | 63 |
| CS(=O)(=O)CCn1c(CN2C(=O)C3(CC3)c3cnccc32)cc2cc(Cl)ccc21 [Example 3-1, 1′-({5-Chloro-1-[2-(methylsulfonyl)ethyl]-1H-indol-2-yl}methyl)spiro[cyclopropane-1,3′-pyrrolo[3,2-c]pyridin]-2′(1′H)-one] | 201 |
| CS(=O)(=O)CCn1c(CN2C(=O)C3(CCCC3)c3ccncc32)cc2cc(Cl)ccc21 [Example 3-2, 1′-({5-Chloro-1-[2-(methylsulfonyl)ethyl]-1H-indol-2-yl}methyl)spiro[cyclopentane-1,3′-pyrrolo[2,3-c]pyridin]-2′(1′H)-one] | 290 |
| CS(=O)(=O)CCn1c(CN2C(=O)C3(CC3)c3ccncc32)cc2cc(Cl)ccc21 [Example 3-3, 1′-({5-Chloro-1-[2-(methylsulfonyl)ethyl]-1H-indol-2-yl}methyl)spiro[cyclopropane-1,3′-pyrrolo[2,3-c]pyridin]-2′(1′H)-one] | 18 |
| CS(=O)(=O)CCCCn1c(CN2C(=O)C3(CC3)c3ccncc32)cc2cc(Cl)ccc21 [Example 4-1, 1′-({5-Chloro-1-[4-(methylsulfonyl)butyl]-1H-indol-2-yl}methyl)spiro[cyclopropane-1,3′-pyrrolo[2,3-c]pyridin]-2′(1′H)-one] | 5.9 |
| CS(=O)(=O)c1ccc(Cn2c(CN3C(=O)C4(CC4)c4ccncc43)cc3cc(Cl)ccc32)cc1 [Example 4-2, 1′-({5-Chloro-1-[4-(methylsulfonyl)benzyl]-1H-indol-2-yl}methyl)spiro[cyclopropane-1,3′-pyrrolo[2,3-c]pyridin]-2′(1′H)-one] | 275 |
| CS(=O)(=O)CCCn1c(CN2C(=O)C3(CC3)c3ccncc32)cc2cc(Cl)cnc21 [Example 4-3, 1′-({5-Chloro-1-[3-(methylsulfonyl)propyl]-1H-pyrrolo[2,3-b]pyridin-2-yl}methyl)spiro[cyclopropane-1,3′-pyrrolo[2,3-c]pyridin]-2′(1′H)-one] | 37.9 |
| Cc1cnc2c(c1)cc(CN1C(=O)C3(CC3)c3ccncc31)n2CCS(C)(=O)=O [Example 4-4, 1′-({5-Methyl-1-[2-(methylsulfonyl)ethyl]-1H-pyrrolo[2,3-b]pyridin-2-yl}methyl)spiro[cyclopropane-1,3′-pyrrolo[2,3-c]pyridin]-2′(1′H)-one] | 64 |
| CS(=O)(=O)CCCCn1c(CN2C(=O)C3(CC3)c3ccncc32)cc2nc(Cl)ccc21 [Example 4-5, 1′-({5-Chloro-1-[4-(methylsulfonyl)butyl]-1H-pyrrolo[3,2-b]pyridin-2-yl}methyl)spiro[cyclopropane-1,3′-pyrrolo[2,3-c]pyridin]-2′(1′H)-one] | 22.1 |
